Laboratory results taken from the supplement of paper PMC10307832.

Assays:
Test in all cases: relative viability (nuclei count vs DMSO), 5 days (fraction); higher = more cells survive
Vorinostat + Bortezomib = compound: O=C(CCCCCCC(=O)Nc1ccccc1)NO [Vorinostat] + CC(C)C[C@H](NC(=O)[C@H](Cc1ccccc1)NC(=O)c1cnccn1)B(O)O [Bortezomib] (partner 0.002 µM)
How it was run: (§1)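 Lung cancer cell lines were seeded in 1536-well plates and dosed by pin tool the next day, with either a single drug or a fixed anchor-drug dose combined with five library-drug doses (not always all listed) spaced in √10 steps. Five days later, one step fixed the cells and stained their nuclei (final 0.05% Triton X-100, 1% formaldehyde, 1 ug/ml Hoechst), and nuclei were counted on 4× images. Relative viability is the nuclei count in treated wells divided by the count in vehicle wells, and each value is the median of duplicate plates.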

Vorinostat + Decitabine = compound: O=C(CCCCCCC(=O)Nc1ccccc1)NO [Vorinostat] + Nc1ncn([C@H]2C[C@H](O)[C@@H](CO)O2)c(=O)n1 [Decitabine] (partner 2 µM)
How it was run: as §1

Vorinostat + Pemetrexed = compound: O=C(CCCCCCC(=O)Nc1ccccc1)NO [Vorinostat] + Nc1nc2[nH]cc(CCc3ccc(C(=O)N[C@@H](CCC(=O)O)C(=O)O)cc3)c2c(=O)[nH]1 [Pemetrexed] (partner 0.2 µM)
How it was run: as §1

Vorinostat + Pictilisib = compound: O=C(CCCCCCC(=O)Nc1ccccc1)NO [Vorinostat] + CS(=O)(=O)N1CCN(Cc2cc3nc(-c4cccc5[nH]ncc45)nc(N4CCOCC4)c3s2)CC1 [Pictilisib] (partner 1 µM)
How it was run: as §1

Vorinostat + Palbociclib = compound: O=C(CCCCCCC(=O)Nc1ccccc1)NO [Vorinostat] + CC(=O)c1c(C)c2cnc(Nc3ccc(N4CCNCC4)cn3)nc2n(C2CCCC2)c1=O [Palbociclib] (partner 0.5 µM)
How it was run: as §1

Row | Cell Line | relative viability (Vorinostat + Bortezomib; first compound 0.253 µM) | relative viability (Vorinostat + Bortezomib; first compound 0.8 µM) | relative viability (Vorinostat + Bortezomib; first compound 2.53 µM) | relative viability (Vorinostat + Bortezomib; first compound 8 µM) | relative viability (Vorinostat + Decitabine; first compound 0.253 µM) | relative viability (Vorinostat + Decitabine; first compound 0.8 µM) | relative viability (Vorinostat + Decitabine; first compound 2.53 µM) | relative viability (Vorinostat + Decitabine; first compound 8 µM) | relative viability (Vorinostat + Pemetrexed; first compound 0.253 µM) | relative viability (Vorinostat + Pemetrexed; first compound 0.8 µM) | relative viability (Vorinostat + Pemetrexed; first compound 2.53 µM) | relative viability (Vorinostat + Pemetrexed; first compound 8 µM) | relative viability (Vorinostat + Pictilisib; first compound 0.253 µM) | relative viability (Vorinostat + Pictilisib; first compound 0.8 µM) | relative viability (Vorinostat + Pictilisib; first compound 2.53 µM) | relative viability (Vorinostat + Pictilisib; first compound 8 µM) | relative viability (Vorinostat + Palbociclib; first compound 0.253 µM) | relative viability (Vorinostat + Palbociclib; first compound 0.8 µM) | relative viability (Vorinostat + Palbociclib; first compound 2.53 µM) | relative viability (Vorinostat + Palbociclib; first compound 8 µM)
1 | NCI-H23 | 1.19 | 1.07 | 0.251 | 0.128 | 0.299 | 0.241 | 0.139 | 0.155 | 0.842 | 0.713 | 0.32 | 0.181 | 0.599 | 0.391 | 0.181 | 0.161 | 0.696 | 0.622 | 0.154 | 0.137
2 | NCI-H1993 | 1.17 | 1.13 | 0.461 | 0.411 | 0.704 | 0.65 | 0.465 | 0.16 | 0.594 | 0.492 | 0.503 | 0.344 | 0.911 | 0.919 | 0.801 | 0.589 | 0.715 | 0.775 | 0.499 | 0.362
3 | COR-L 105 | 1.3 | 0.617 | 0.292 | 0.267 | 0.588 | 0.679 | 0.362 | 0.256 | 1.21 | 1.25 | 0.7 | 0.281 | 0.438 | 0.261 | 0.262 | 0.201 | 0.402 | 0.396 | 0.283 | 0.284
4 | NCI-H3122 | 1.07 | 0.995 | 1.03 | 0.145 | 0.45 | 0.582 | 0.269 | 0.117 | 0.199 | 0.199 | 0.174 | 0.0738 | 0.667 | 0.758 | 0.284 | 0.177 | 0.19 | 0.254 | 0.142 | 0.0743
5 | HCC-15 | 1.15 | 0.973 | 0.518 | 0.13 | 0.69 | 0.521 | 0.2 | 0.0924 | 0.219 | 0.216 | 0.172 | 0.099 | 0.811 | 0.608 | 0.472 | 0.108 | 0.748 | 0.688 | 0.281 | 0.101
6 | NCI-H520 | 0.605 | 0.164 | 0.13 | 0.107 | 0.581 | 0.474 | 0.297 | 0.157 | 0.831 | 0.663 | 0.322 | 0.17 | 0.369 | 0.213 | 0.21 | 0.146 | 0.351 | 0.31 | 0.19 | 0.133
7 | NCI-H2347 | 0.971 | 0.843 | 0.561 | 0.199 | 0.644 | 0.62 | 0.508 | 0.24 | 0.427 | 0.41 | 0.416 | 0.299 | 0.696 | 0.377 | 0.199 | 0.211 | 0.405 | 0.371 | 0.362 | 0.242
8 | 201T | 1.11 | 1.1 | 1.1 | 0.641 | 0.845 | 0.874 | 0.679 | 0.266 | 0.327 | 0.323 | 0.253 | 0.25 | 0.741 | 0.605 | 0.522 | 0.313 | 0.363 | 0.357 | 0.379 | 0.242
9 | NCI-H2009 | 1.32 | 0.567 | 0.233 | 0.126 | 0.416 | 0.354 | 0.273 | 0.0862 | 0.993 | 0.955 | 0.666 | 0.131 | 1.3 | 0.747 | 0.346 | 0.0949 | 0.267 | 0.25 | 0.171 | 0.0986
10 | NCI-H661 | 0.839 | 0.933 | 0.439 | 0.185 | 0.575 | 0.468 | 0.335 | 0.316 | 0.926 | 0.78 | 0.455 | 0.355 | 0.557 | 0.696 | 0.462 | 0.214 | 0.437 | 0.377 | 0.286 | 0.32
11 | BEN | 0.941 | 0.479 | 0.201 | 0.0496 | 0.838 | 0.55 | 0.236 | 0.143 | 0.712 | 0.572 | 0.474 | 0.145 | 0.659 | 0.332 | 0.132 | 0.0393 | 0.433 | 0.455 | 0.301 | 0.155
12 | NCI-H1355 | 1.3 | 0.978 | 0.863 | 0.131 | 0.393 | 0.354 | 0.253 | 0.143 | 1.09 | 1.01 | 0.536 | 0.246 | 0.556 | 0.329 | 0.244 | 0.165 | 0.411 | 0.356 | 0.214 | 0.138
13 | PC-14 | 0.913 | 0.847 | 0.102 | 0.073 | 0.227 | 0.19 | 0.0705 | 0.06 | 0.162 | 0.177 | 0.14 | 0.0507 | 0.959 | 0.438 | 0.0673 | 0.0418 | 0.56 | 0.351 | 0.0802 | 0.0377
14 | NCI-H1650 | 0.22 | 0.178 | 0.179 | 0.142 | 0.351 | 0.359 | 0.27 | 0.135 | 0.307 | 0.341 | 0.29 | 0.18 | 0.542 | 0.283 | 0.181 | 0.124 | 0.281 | 0.234 | 0.164 | 0.0922
15 | SW 1573 | 1.11 | 1.1 | 0.565 | 0.0796 | 0.514 | 0.355 | 0.14 | 0.0457 | 1.2 | 1.05 | 0.346 | 0.0659 | 0.543 | 0.45 | 0.24 | 0.0767 | 0.433 | 0.305 | 0.212 | 0.0703
16 | NCI-H1975 | 0.438 | 0.198 | 0.0889 | 0.081 | 0.435 | 0.441 | 0.165 | 0.113 | 0.323 | 0.243 | 0.183 | 0.133 | 0.321 | 0.242 | 0.0978 | 0.118 | 0.569 | 0.461 | 0.164 | 0.104
